From ChEMBL document CHEMBL5143750, “Bisubstrate Inhibitors of Severe Acute Respiratory Syndrome Coronavirus-2 Nsp14 Methyltransferase” (ACS Med Chem Lett, 2022)

System: SARS-CoV-2
Assay: Antiviral activity against SARS-CoV-2 infected in human A549 cells overexpressing ACE2 and TMPRSS2 assessed as reduction in viral growth incubated for 48 hrs by DAPI staining based immunofluorescence assay
Assay type: functional, organism-based
Details: Severe acute respiratory syndrome coronavirus 2, A549, 48 h

Row | Structure (SMILES) | EC50 [µM]
1 | CC(C)C(=O)O[C@@H]1[C@H](OC(=O)C(C)C)[C@@H](CNS(=O)(=O)c2ccc3ccccc3c2)O[C@H]1n1cnc2c(N)ncnc21 | 97
2 | CC(=O)Nc1ncnc2c1ncn2[C@@H]1O[C@H](CNS(=O)(=O)c2ccc3ccccc3c2)[C@@H](OC(C)=O)[C@H]1OC(C)=O | 61
3 | CC(=O)O[C@@H]1[C@H](OC(C)=O)[C@@H](CNS(=O)(=O)c2ccc3ccccc3c2)O[C@H]1n1cnc2c(N)ncnc21 | 53
4 | CC(=O)O[C@@H]1[C@H](OC(C)=O)[C@@H](CNS(=O)(=O)c2ccc3ccccc3c2)O[C@H]1c1ccc2c(N)ncnn12 | 4.3
5 | Nc1ncnn2c([C@@H]3O[C@H](CNS(=O)(=O)c4ccc5ccccc5c4)[C@@H](O)[C@H]3O)ccc12 | 0.72

System: not listed separately
Assay: Therapeutic index, ratio of CC50 for cytotoxicity against human A549 cells overexpressing ACE2 and TMPRSS2 to EC50 for antiviral activity against SARS-CoV-2 infected in human A549 cells overexpressing ACE2 and TMPRSS2 assessed as reduction in viral growth
Assay type: toxicity, cell-based
Details: read-out: Ratio CC50/EC50

Row | Structure (SMILES) | selectivity ratio
6 | Nc1ncnn2c([C@@H]3O[C@H](CNS(=O)(=O)c4ccc5ccccc5c4)[C@@H](O)[C@H]3O)ccc12 | > 139

System: SARS-CoV-2
Assay: Antiviral activity against SARS-CoV-2 infected in human A549 cells overexpressing ACE2 and TMPRSS2 assessed as inhibition of viral growth at 50 uM incubated for 48 hrs by DAPI staining based immunofluorescence assay
Assay type: functional
Details: Severe acute respiratory syndrome coronavirus 2, A549

Row | Structure (SMILES) | inhibition at 50 µM [%]
7 | Nc1ncnc2c1ncn2[C@@H]1O[C@H](C[C@@H](N)CC[C@H](N)C(=O)O)[C@@H](O)[C@H]1O [SINEFUNGIN] | < 15
8 | CC(=O)Nc1ncnc2c1ncn2[C@@H]1O[C@H](CNS(=O)(=O)c2ccc3ccccc3c2)[C@@H](O)[C@H]1O | < 15
9 | Nc1ncnc2c1ncn2[C@@H]1O[C@H](CNCc2ccc3ccccc3c2)[C@@H](O)[C@H]1O | < 15
10 | Nc1ncnc2c1ncn2[C@@H]1O[C@H](CNC(=O)c2ccc3ccccc3c2)[C@@H](O)[C@H]1O | < 15
11 | Nc1ncnc2c1ncn2[C@@H]1O[C@H](CNS(=O)(=O)c2ccc3nc(Cl)ccc3c2)[C@@H](O)[C@H]1O | < 15
12 | Nc1ncnc2c1ncn2[C@@H]1O[C@H](CNS(=O)(=O)c2ccc3ccccc3c2)[C@@H](O)[C@H]1O | < 15
13 | Nc1ncnc2c1ncn2[C@@H]1O[C@H](CNS(=O)(=O)c2ccc3cccnc3c2)[C@@H](O)[C@H]1O | < 15
